{
  "source": "ChEMBL document CHEMBL1131009",
  "about": "“Structure-activity relationship studies of novel carbocyclic influenza neuraminidase inhibitors” (J Med Chem, 1998)",
  "data": [
    {"target": "Neuraminidase (Influenza A virus (A/Puerto Rico/8/1934(H1N1)), UniProt P03468)", "experiment": "Inhibitory activity against influenza A neuraminidase from influenza A/PR/8/34 (H1N1).", "design": "species or system Influenza A virus (strain: A/PR/8/34)", "units": {"IC50": "nM"}, "values": [
      {"smiles": "CCCO[C@@H]1C=C(C(=O)O)C[C@H](N=C(N)N)[C@H]1NC(C)=O", "IC50": 2},
      {"smiles": "CCCCCCC[C@H](CC)O[C@@H]1C=C(C(=O)O)C[C@H](N)[C@H]1NC(C)=O", "IC50": 1},
      {"smiles": "CC(=O)N[C@@H]1[C@@H](N)CC(C(=O)O)=C[C@H]1OCc1ccccc1", "IC50": 620},
      {"smiles": "CCCCO[C@@H]1C=C(C(=O)O)C[C@H](N)[C@H]1NC(C)=O", "IC50": 300},
      {"smiles": "CCCCCO[C@@H]1C=C(C(=O)O)C[C@H](N)[C@H]1NC(C)=O", "IC50": 200},
      {"smiles": "CCCCCCCCCCO[C@@H]1C=C(C(=O)O)C[C@H](N)[C@H]1NC(C)=O", "IC50": 600},
      {"smiles": "CC[C@@H](C)O[C@@H]1C=C(C(=O)O)C[C@H](N)[C@H]1NC(C)=O", "IC50": 10},
      {"smiles": "CCCCCCCO[C@@H]1C=C(C(=O)O)C[C@H](N)[C@H]1NC(C)=O", "IC50": 270},
      {"smiles": "CO[C@@H]1C=C(C(=O)O)C[C@H](N)[C@H]1NC(C)=O", "IC50": 3700},
      {"smiles": "CCC(CC)O[C@@H]1C(F)=C(C(=O)O)C[C@H](N)[C@H]1NC(C)=O", "IC50": 3},
      {"smiles": "CC[C@H](C)O[C@@H]1C=C(C(=O)O)C[C@H](N)[C@H]1NC(C)=O", "IC50": 9},
      {"smiles": "CC(=O)N[C@H]1[C@H](O)C=C(C(=O)O)C[C@@H]1N", "IC50": 6300},
      {"smiles": "CC(=O)N[C@@H]1[C@@H](N)CC(C(=O)O)=C[C@H]1OC(Cc1ccccc1)Cc1ccccc1", "IC50": "> 1000"},
      {"smiles": "CC[C@@H](CC1CCCCC1)O[C@@H]1C=C(C(=O)O)C[C@H](N)[C@H]1NC(C)=O", "IC50": 16},
      {"smiles": "CC[C@@H](CCC1CCCCC1)O[C@@H]1C=C(C(=O)O)C[C@H](N)[C@H]1NC(C)=O", "IC50": 1},
      {"smiles": "CCO[C@@H]1C=C(C(=O)O)C[C@H](N)[C@H]1NC(C)=O", "IC50": 2000},
      {"smiles": "CC(=O)N[C@H]1[C@H](O)C=C(C(=O)O)C[C@@H]1N=C(N)N", "IC50": 100},
      {"smiles": "CC(=O)N[C@@H]1[C@@H](N)CC(C(=O)O)=C[C@H]1OC(CCCc1ccccc1)CCCc1ccccc1", "IC50": "> 1000"},
      {"smiles": "CCCCCCO[C@@H]1C=C(C(=O)O)C[C@H](N)[C@H]1NC(C)=O", "IC50": 150},
      {"smiles": "CC[C@H](CCc1ccccc1)O[C@@H]1C=C(C(=O)O)C[C@H](N)[C@H]1NC(C)=O", "IC50": 12},
      {"smiles": "CCCCCCCCCO[C@@H]1C=C(C(=O)O)C[C@H](N)[C@H]1NC(C)=O", "IC50": 210},
      {"smiles": "CCC(CC)O[C@@H]1C=C(C(=O)O)[C@@H](C)[C@H](N)[C@H]1NC(C)=O", "IC50": 1500},
      {"smiles": "CC[C@@H](CCc1ccccc1)O[C@@H]1C=C(C(=O)O)C[C@H](N)[C@H]1NC(C)=O", "IC50": 0.3},
      {"smiles": "CCCCCCCCO[C@@H]1C=C(C(=O)O)C[C@H](N)[C@H]1NC(C)=O", "IC50": 180},
      {"smiles": "CC(=O)N[C@@H]1[C@@H](N)CC(C(=O)O)=C[C@H]1OCC(C)C", "IC50": 200},
      {"smiles": "CCCO[C@@H]1C=C(C(=O)O)C[C@H](N)[C@H]1NC(C)=O", "IC50": 180},
      {"smiles": "CC(=O)N[C@@H]1[C@@H](N)CC(C(=O)O)=C[C@H]1OCCCc1ccc(-c2ccccc2)cc1", "IC50": 90},
      {"smiles": "CC[C@@H](C)O[C@@H]1C=C(C(=O)O)C[C@H](NC(=N)N)[C@H]1NC(C)=O", "note": "(stereo in doubt; 61)", "IC50": 0.5},
      {"smiles": "CCCCO[C@@H]1C=C(C(=O)O)C[C@H](N=C(N)N)[C@H]1NC(C)=O", "IC50": 3},
      {"smiles": "CCC(CC)O[C@@H]1C(C)=C(C(=O)O)C[C@H](N)[C@H]1NC(C)=O", "IC50": 2300}
    ]}
  ]
}
